In patent US20080293725A1, “Prognostic Molecular Markers” (priority 2004, published 2008):
Where “and” joins values, the source holds several entries; their conditions need not be identical. Equal values may be shown once.

Tests used:
[1] = tested on: HCC1937 breast cancer cell line; details: wild-type BRCA1 reconstituted vs BRCA1-negative HCC1937; cited from earlier work
[2] = tested on: sarcoma patients; test: Clinical outcome of sarcoma patients treated with ET-743, matched with BRCA1, ERCC1 and XPD mRNA expression in tumor samples; type: in vivo, human; design: PFS6 rate (progression free survival higher than 6 months) / patients achieving progression free survival >=6 months (PFS6) / overall progression free survival at 6 months (Kaplan-Meier) / median survival at 12 months: concentration or dose not given beside the values
Method: In this study, 61 paraffin embedded tumoral samples from sarcoma patients before the treatment with any chemotherapy agent have been evaluated.
The majority of patients were treated before with one or several chemotherapy agents and later they followed a treatment with ET-743. The dosage of intravenous infusion ET-743 given to the different patients was within the range of 1.650-1.0 mg/m2; the schedules were 24 hours or 3 hour IV infusion with a three week interval between cycles; and the number of cycles ranged from 1 up to 25 cycles in some patients.
The clinical data from the patients was collected in the clinical data collection form and matched with the molecular data after completion of the mRNA expression levels determination (Table 1).
We examined XPD, ERCC1 and/or BRCA1 gene expression in formalin-fixed, paraffin-embedded tumor specimens from the 61 patients as previously described (Specht K. et al. Am J Pathol, 2001, 158, 419-429 and Krafft A E. et al. Mol Diagn. 1997, 3, 217-230). After standard tissue sample deparaffinisation using xylene and alcohols, samples were lysed in a tris-chloride, EDTA, sodium dodecyl sulphate (SDS) and proteinase K containing buffer. RNA was then extracted with phenol-chloroform-isoamyl alcohol followed by precipitation with isopropanol in the presence of glycogen and sodium acetate. RNA was resuspended in RNA storage solution (Ambion Inc; Austin Tex., USA) and treated with DNAse I to avoid DNA contamination. cDNA was synthesized using M-MLV retrotranscriptase enzyme. Template cDNA was added to Taqman Universal Master Mix (AB; Applied Biosystems, Foster City, Calif., USA) in a 20-μl reaction with specific primers and probe for each gene. The primer and probe sets were designed using Primer Express 2.0 Software (AB). Quantification of gene expression was performed using the ABI Prism 7900HT Sequence Detection System (AB). The primers and 5′ labeled fluorescent reporter dye (6FAM) probe were as follows: β-actin: forward 5′ TGA GCG CGG CTA CAG CTT 3′, reverse 5′ TCCTTAATGTCACGCACGATTT 3′, probe 5′ ACC ACC ACG GCC GAG CGG 3′; BRCA1: forward 5′ GGCTATCCTCTCAGAGTGACATTTTA 3′, reverse 5′ GCTTTATCAGGTTATGTTGCATGGT 3′, probe 5′ CCA CTC AGC AGA GGG 3′; ERCC1: forward 5′ GGGAATTTGGCGACGTAATTC 3′, reverse 5′ GCG GAG GCT GAG GAA CAG 3′, probe 5′CACAGGTGCTCTGGCCCAGCACATA 3′; XPD: forward 5′ GCTCCCGCAAAAACTTGTGT 3′, reverse 5′ CAT CGA CGT CCT TCC CAA A 3′, probe 5′ ACCCTGAGGTGACACCCCTGC 3′.
Relative gene expression quantification was calculated according to the comparative Ct method using β-actin as an endogenous control and commercial RNA controls (Stratagene, La Jolla, Calif.) as calibrators. Final results, were determined as follows: 2^−(^Δ^Ct sample−^Δ^Ct calibrator), where ΔCT values of the calibrator and sample are determined by subtracting the […]. In all experiments, only triplicates with a standard deviation (SD) of the Ct value <0.20 were accepted. In addition, for each sample analyzed, a retrotranscriptase minus control was run in the same plate to assure lack of genomic DNA contamination.
SAS v8.2 (statistical software) was used for all the statistical analysis. The statistical techniques for univariate, bivariate and multivariate variables were chosen, according with the nature of variables that will be analysed, i.e. when the dependent variable is a temporal variable with censor status the Cox regression would be applied, when correlation between variables will be computed the Pearson and/or Spearman measures would be used. P-values below 0.05 will be considered statistically significant in all tests, when appropriate 95% confidence intervals will be presented too.
A total of 61 paraffin embedded tumor samples were evaluated. […] These samples came from sarcoma patients before being treated with a chemotherapy agent.

[3] = BRCA1 mRNA <1.97 (low expression)
[4] = BRCA1 mRNA >=1.97 (high expression)
[5] = ERCC1 mRNA <5.86 (low expression)
[6] = ERCC1 mRNA >=5.86 (high expression)
[7] = Kaplan-Meier FIG. 2A, high BRCA1 expressers
[8] = Kaplan-Meier FIG. 2A, high BRCA1 expression
[9] = Kaplan-Meier FIG. 2A, low BRCA1 expression
[10] = Kaplan-Meier FIG. 2B, high ERCC1 expression
[11] = Kaplan-Meier FIG. 2B, low ERCC1 expression
[12] = Kaplan-Meier FIG. 2C (XPD), high expression
[13] = Kaplan-Meier FIG. 2C (XPD), low expression
[14] = XPD mRNA <1.99 (low expression)
[15] = XPD mRNA >=1.99 (high expression)

SMILES: N.N.[Cl][Pt][Cl] [cisplatin]
- increase in resistance [1]: 20 fold

SMILES: COc1cc2c(cc1O)CCN[C@]21CS[C@@H]2c3c(OC(C)=O)c(C)c4c(c3[C@H](COC1=O)N1[C@@H]2[C@H]2c3c(cc(C)c(OC)c3O)C[C@@H]([C@@H]1O)N2C)OCO4 [ET-743, ecteinascidin 743]
- increase in objective response, low BRCA1 subpopulation vs full cohort ([2]; 16% to 21%): 1.3 fold
- increase in PFS6 rate, low BRCA1 subpopulation vs full cohort ([2]; 24% to 38%): 1.6 fold
- overall response rate (RR), PR + Minor Responses ([2]; 55 evaluable patients): 16%
- overall response rate (RR), only Partial Responses ([2]; 55 evaluable patients): 15%
- patients achieving progression free survival >=6 months (PFS6) ([2]; 55 evaluable patients, (8 PR+1 MR+6 SD)/55): 27%
- PD (number of patients) ([2]; BRCA1 cohort, Total): 30
- PFS <6 (number of patients) ([2]; BRCA1 cohort, Total): 38
- PFS >=6 (number of patients) ([2]; BRCA1 cohort, Total): 12
- PR + MR (number of patients) ([2]; BRCA1 cohort, Total): 8
- PD (number of patients) ([2]; BRCA1 mRNA <1.97): 12
- PFS <6 (number of patients) ([2]; BRCA1 mRNA <1.97): 16
- PFS >=6 (number of patients) ([2]; BRCA1 mRNA <1.97): 9
- PR + MR (number of patients) ([2]; BRCA1 mRNA <1.97): 5
- objective response (PR+MR) [2, 3]: 21%
- patients reaching PFS6 (PFS >=6 months) [2, 3]: 38% and 36%
- PD (number of patients) ([2]; BRCA1 mRNA >=1.97): 18
- PFS <6 (number of patients) ([2]; BRCA1 mRNA >=1.97): 22
- PFS >=6 (number of patients) ([2]; BRCA1 mRNA >=1.97): 3
- PR + MR (number of patients) ([2]; BRCA1 mRNA >=1.97): 3
- objective response (PR+MR) [2, 4]: 11%
- patients reaching PFS6 (PFS >=6 months) [2, 4]: 12%
- PD (number of patients) ([2]; ERCC1 cohort, Total): 22
- PFS <6 (number of patients) ([2]; ERCC1 cohort, Total): 29
- PR + MR (number of patients) ([2]; ERCC1 cohort, Total): 6
- PD (number of patients) ([2]; ERCC1 mRNA <5.86): 12
- PFS <6 (number of patients) ([2]; ERCC1 mRNA <5.86): 16
- PFS >=6 (number of patients) ([2]; ERCC1 mRNA <5.86): 3
- PR + MR (number of patients) ([2]; ERCC1 mRNA <5.86): 2
- objective response (PR+MR) [2, 5]: 11%
- patients reaching PFS6 (PFS >=6 months) [2, 5]: 16%
- PD (number of patients) ([2]; ERCC1 mRNA >=5.86): 10
- PFS <6 (number of patients) ([2]; ERCC1 mRNA >=5.86): 13
- PFS >=6 (number of patients) ([2]; ERCC1 mRNA >=5.86): 6
- PR + MR (number of patients) ([2]; ERCC1 mRNA >=5.86): 4
- objective response (PR+MR) [2, 6]: 21%
- patients reaching PFS6 (PFS >=6 months) [2, 6]: 32%
- PFS (median) [2, 7]: 1.5 months
- median survival [2, 7]: 5.4 months
- median survival at 12 months [2, 8]: 35.71%
- percentage of patients with PFS6 [2, 8]: 11.54%
- PFS (median) [2, 9]: 2.3 months
- median survival [2, 9]: 11.7 months
- median survival at 12 months [2, 9]: 42.23%
- percentage of patients with PFS6 [2, 9]: 41.67%
- median survival ([2]; Kaplan-Meier FIG. 2B, high ERCC1 expressers): 19.4 months
- PFS6 [2, 10]: 31.58%
- median PFS [2, 10]: 2.2 months
- PFS6 [2, 11]: 21.05%
- median PFS [2, 11]: 1.4 months
- median survival [2, 11]: 16.8 months
- PFS6 [2, 12]: 30%
- median PFS [2, 12]: 2.0 months
- median survival [2, 12]: 19.4 months
- median survival ([2]; Kaplan-Meier FIG. 2C (XPD), low expressers): 16.8 months
- PFS6 [2, 13]: 17.65%
- median PFS [2, 13]: 1.2 months
- PD (number of patients) ([2]; XPD cohort, Total): 22
- PFS <6 (number of patients) ([2]; XPD cohort, Total): 29
- PFS >=6 (number of patients) ([2]; XPD cohort, Total): 8
- PR + MR (number of patients) ([2]; XPD cohort, Total): 5
- PD (number of patients) ([2]; XPD mRNA <1.99): 11
- PFS <6 (number of patients) ([2]; XPD mRNA <1.99): 14
- PFS >=6 (number of patients) ([2]; XPD mRNA <1.99): 3
- PR + MR (number of patients) ([2]; XPD mRNA <1.99): 2
- objective response (PR+MR) [2, 14]: 12%
- patients reaching PFS6 (PFS >=6 months) [2, 14]: 18%
- PD (number of patients) ([2]; XPD mRNA >=1.99): 11
- PFS <6 (number of patients) ([2]; XPD mRNA >=1.99): 15
- PFS >=6 (number of patients) ([2]; XPD mRNA >=1.99): 5
- PR + MR (number of patients) ([2]; XPD mRNA >=1.99): 3
- objective response (PR+MR) [2, 15]: 15%
- patients reaching PFS6 (PFS >=6 months) [2, 15]: 25%
- median duration of the response (PR+MR) ([2]; all patients): 13.6 months
- range of duration of the response (PR+MR) ([2]; all patients): 44.1 to 3.8 months
- range of survival ([2]; all patients): 0.1-66.9 months
- median survival ([2]; all patients, 14 patients still censored): 7.7 months
- median survival (Kaplan-Meier) ([2]; all patients, FIG. 1): 10.2 months
- overall progression free survival at 6 months (Kaplan-Meier) ([2]; all patients, FIG. 1): 27.65%
- objective response (PR+MR) ([2]; full cohort with BRCA1 data (8/51)): 16%
- PFS6 rate (progression free survival higher than 6 months) ([2]; full cohort with BRCA1 data (12/50)): 24%
